# Biological target: T1, myristoylated Fas-FKBP12 fusion protein (MFF3E) (Homo sapiens, UniProt P25445)
# T1 construct: expressed in transfected cells; host or cells: Jurkat T cells stably transformed with large T-antigen, transient transfection
# Assay type: cell-based
# T1 sequence (P25445 with tags, fused parts or gaps): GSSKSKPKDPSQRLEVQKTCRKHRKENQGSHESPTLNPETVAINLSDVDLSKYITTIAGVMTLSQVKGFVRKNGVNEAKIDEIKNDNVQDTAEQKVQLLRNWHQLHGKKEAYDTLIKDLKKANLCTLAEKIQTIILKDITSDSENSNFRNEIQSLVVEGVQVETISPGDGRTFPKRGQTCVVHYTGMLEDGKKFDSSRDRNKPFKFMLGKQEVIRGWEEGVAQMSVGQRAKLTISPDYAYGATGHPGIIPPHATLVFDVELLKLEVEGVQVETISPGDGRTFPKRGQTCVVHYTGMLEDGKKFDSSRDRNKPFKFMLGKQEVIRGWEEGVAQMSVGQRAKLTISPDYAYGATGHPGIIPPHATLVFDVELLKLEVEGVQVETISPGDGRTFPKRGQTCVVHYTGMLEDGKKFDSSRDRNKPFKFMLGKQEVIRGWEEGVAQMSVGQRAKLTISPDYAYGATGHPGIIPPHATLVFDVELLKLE
substance,measurement,value
FK1012-A (p-xylylenediamine bridge) [FK1012A],LD50 for mediated death of cells,15 nM

# From patent publication US8084596B2, “Regulated apoptosis” (The Board of Trustees of the Leland Stanford Junior …, priority 1993, dated 2011)
